Source: patent US20040208919A1, “Vaccination against prion diseases” (priority 2002, published 2004)
“And” between values parts separate entries of the source, which are not always exact repeats. Identical values can stand only once.

Test system: primary rat hippocampal neurons
Assay type: cell-based

| Sequence | Cell death % | Neuronal death, mode and dose dependence | Neurotoxicity compared with the other synthetic PrP fragments |
| --- | --- | --- | --- |
| WGQPHGGG [PrP 57-64] | 0 ± 5% and 3 ± 4% | – | – |
| KTNMKHMAGAAAAGAVVGGLG [PrP 106-126] | – | occurred by apoptosis in a dose dependent manner | most neurotoxic fragment |
| WGQGGGTHSQWNKPSKPK [PrP 89-106] | 5 ± 2% and 2 ± 6% | – | – |
| NGAKALMGGHGATKVMVGAAA [PrP 106-126 scrambled, reference compound] | 3 ± 2% and 8 ± 3% | – | – |
